# Key:
# p38 MAP kinase = test: Phospho-p38 in SU-DHL-1 cells (Luminex multiplex); format: cell-based, human; conditions: 24 hours
# Protocol: (§1) FIGS. 8A-8F. Effect of EP009 on ALCL cells is mediated through selective activation of ERK1/2 and JNK1/2 stress signaling pathways, and inhibition of p70 S6 kinase growth signaling pathways. SU-DHL-1 cells were treated with vehicle (PBS) or increasing amounts of EP009 (0-50 μM) for 24 hours. Cells were then lysed, clarified, and subjected to Luminex multiplex analysis to detect phosphorylated (A) ERK1/2, (B) JNK1/2, (C) p70 S6 kinase, (D) IκBα, (E) CREB, and (F) p38. Values represent mean fluorescence intensity (MFI) normalized to corresponding GAPDH MFI, while error bars represent the standard deviation (n=2). Representative data from two independent experiments are shown. Statistical significance was determined using Student's t-test. (*, p<0.05).
# (§2) The MILLIPLEX MAP 8-plex Multi-Pathway Signaling Phosphoprotein kit (Millipore) was used to detect phosphorylated ERK1/2 (Thr185/Tyr187), STAT3 (Ser727), JNK1/2 (Thr183/Tyr185), p70 S6 kinase (Thr412), IκBα (Ser32), STAT5A/B (Tyr694/699), CREB (Ser133), and p38 (Thr180/Tyr182). The MILLIPLEX MAP 5-plex STAT Phosphoprotein kit (Millipore) was used to detect phosphorylated STAT1 (Tyr701), STAT2 (Tyr690), STAT3 (Tyr705), STAT5A/B (Tyr694/699), and STAT6 (Tyr641). The MILLIPLEX MAP Human Apoptosis 3-plex kit (Millipore) was used to detect cleaved PARP, cleaved Caspase 3, and total GAPDH for protein normalization.
# CREB = test: Phospho-CREB in SU-DHL-1 cells (Luminex multiplex); format: cell-based, human; conditions: 24 hours
# Protocol: as §1, §2
# AURKB = AURKB (Homo sapiens, UniProt Q96GD4); test: Kinase panel: AURKB; format: biochemical; conditions: 10 μM EP009
# AURKB, sequence (Q96GD4 whole entry): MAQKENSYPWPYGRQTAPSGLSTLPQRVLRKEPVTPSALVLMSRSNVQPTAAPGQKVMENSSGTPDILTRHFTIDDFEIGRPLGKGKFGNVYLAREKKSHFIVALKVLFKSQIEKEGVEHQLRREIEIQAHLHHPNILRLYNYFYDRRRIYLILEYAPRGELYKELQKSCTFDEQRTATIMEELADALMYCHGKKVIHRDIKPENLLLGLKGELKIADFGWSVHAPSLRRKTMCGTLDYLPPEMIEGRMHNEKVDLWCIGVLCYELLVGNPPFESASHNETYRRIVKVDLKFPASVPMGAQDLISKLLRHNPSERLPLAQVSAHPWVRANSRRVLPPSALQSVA
# Protocol: (§3) Achieving JAK3 selectivity remains a significant challenge in the development of new small molecules for the treatment of cancer and immune-derived diseases. As such, the inventors employed cell-based screening assays of small-molecule libraries based upon the chemical scaffold of the established JAK3 inhibitor NC1153 (Stepkowski et al., J Immunol. (2005), 175(7):4236-4246) EP009 (FIG. 2A) was selected as a lead compound due to improved intrinsic stability (>95% purity in various solvents at 37° C. for 24 hours; FIG. 3) and high-degree of JAK3 selectivity. To test JAK3 versus JAK2 specificity of EP009, the IL-2/JAK3-dependent Kit225, and IL-3/JAK2-dependent BaF/3 cell lines were used. Kit225 and BaF/3 cells growing in the presence of IL-2 or IL-3, respectively, were treated with ascending concentrations of EP009 for 12 hours and cellular JAK3 and JAK2 tyrosine phosphorylation levels detected by Western blot analysis (FIGS. 2B and 2C). Following densitometric analysis, EP009 was determined to dose-dependently reduce IL-2-mediated JAK3 tyrosine phosphorylation with a cellular 50% inhibitory concentration (IC50) between 10 and 20 μM (FIG. 2B). […] To globally evaluate specificity, the inhibitory activity of EP009 was measured against a panel of protein kinases distributed throughout the kinome using the scanEDGE profiling service (KINOMEscan). […]
# BRAF = BRAF (Homo sapiens, UniProt P15056); test: Kinase panel: BRAF; format: biochemical; conditions: 10 μM EP009
# Protocol: as §3
# BTK = BTK (Homo sapiens, UniProt Q06187); test: Kinase panel: BTK; format: biochemical; conditions: 10 μM EP009
# BTK, sequence (Q06187 whole entry): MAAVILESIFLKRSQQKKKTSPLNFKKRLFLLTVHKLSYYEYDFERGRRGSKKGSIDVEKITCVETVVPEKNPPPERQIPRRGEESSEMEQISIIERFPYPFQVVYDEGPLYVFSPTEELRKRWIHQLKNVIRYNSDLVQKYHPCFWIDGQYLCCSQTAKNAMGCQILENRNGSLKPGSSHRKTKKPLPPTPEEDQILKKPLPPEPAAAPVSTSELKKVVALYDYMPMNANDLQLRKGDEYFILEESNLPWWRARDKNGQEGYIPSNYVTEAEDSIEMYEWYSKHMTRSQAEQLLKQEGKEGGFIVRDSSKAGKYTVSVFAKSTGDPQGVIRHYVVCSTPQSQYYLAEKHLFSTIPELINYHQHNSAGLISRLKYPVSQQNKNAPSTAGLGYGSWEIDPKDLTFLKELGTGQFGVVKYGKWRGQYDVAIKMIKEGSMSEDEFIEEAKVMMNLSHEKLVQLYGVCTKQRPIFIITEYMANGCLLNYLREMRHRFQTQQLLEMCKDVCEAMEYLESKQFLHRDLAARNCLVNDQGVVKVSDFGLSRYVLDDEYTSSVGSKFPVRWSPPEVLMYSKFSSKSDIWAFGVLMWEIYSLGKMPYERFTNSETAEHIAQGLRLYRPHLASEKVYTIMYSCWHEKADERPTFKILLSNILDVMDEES
# Protocol: as §3
# CSF1R = CSF1R (Homo sapiens, UniProt P07333); test: Kinase panel: CSF1R; format: biochemical; conditions: 10 μM EP009
# Protocol: as §3
# EGFR = EGFR (Homo sapiens, UniProt P00533); test: Kinase panel: EGFR; format: biochemical; conditions: 10 μM EP009
# Protocol: as §3
# EGFR(L858R) = EGFR(L858R) (Homo sapiens, UniProt P00533, L858R); test: Kinase panel: EGFR(L858R); format: biochemical; conditions: 10 μM EP009
# Protocol: as §3
# ERK1 = ERK1 (Homo sapiens, UniProt P27361); test: Kinase panel: ERK1; format: biochemical; conditions: 10 μM EP009
# ERK1, sequence (P27361 whole entry): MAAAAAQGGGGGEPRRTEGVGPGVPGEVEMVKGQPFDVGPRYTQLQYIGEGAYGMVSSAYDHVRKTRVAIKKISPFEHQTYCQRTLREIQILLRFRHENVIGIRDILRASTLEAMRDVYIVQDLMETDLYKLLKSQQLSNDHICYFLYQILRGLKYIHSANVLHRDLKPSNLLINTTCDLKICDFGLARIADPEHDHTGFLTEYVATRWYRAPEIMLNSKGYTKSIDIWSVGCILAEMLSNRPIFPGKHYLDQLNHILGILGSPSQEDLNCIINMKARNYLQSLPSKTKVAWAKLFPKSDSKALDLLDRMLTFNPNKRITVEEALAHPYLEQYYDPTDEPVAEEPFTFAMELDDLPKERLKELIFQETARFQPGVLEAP
# Protocol: as §3
# INSR = INSR (Homo sapiens, UniProt P06213); test: Kinase panel: INSR; format: biochemical; conditions: 10 μM EP009
# Protocol: as §3
# KIT(D816V) = KIT(D816V) (Homo sapiens, UniProt P10721, D816V); test: Kinase panel: KIT(D816V); format: biochemical; conditions: 10 μM EP009
# KIT(D816V), sequence (P10721 26-976 D816V): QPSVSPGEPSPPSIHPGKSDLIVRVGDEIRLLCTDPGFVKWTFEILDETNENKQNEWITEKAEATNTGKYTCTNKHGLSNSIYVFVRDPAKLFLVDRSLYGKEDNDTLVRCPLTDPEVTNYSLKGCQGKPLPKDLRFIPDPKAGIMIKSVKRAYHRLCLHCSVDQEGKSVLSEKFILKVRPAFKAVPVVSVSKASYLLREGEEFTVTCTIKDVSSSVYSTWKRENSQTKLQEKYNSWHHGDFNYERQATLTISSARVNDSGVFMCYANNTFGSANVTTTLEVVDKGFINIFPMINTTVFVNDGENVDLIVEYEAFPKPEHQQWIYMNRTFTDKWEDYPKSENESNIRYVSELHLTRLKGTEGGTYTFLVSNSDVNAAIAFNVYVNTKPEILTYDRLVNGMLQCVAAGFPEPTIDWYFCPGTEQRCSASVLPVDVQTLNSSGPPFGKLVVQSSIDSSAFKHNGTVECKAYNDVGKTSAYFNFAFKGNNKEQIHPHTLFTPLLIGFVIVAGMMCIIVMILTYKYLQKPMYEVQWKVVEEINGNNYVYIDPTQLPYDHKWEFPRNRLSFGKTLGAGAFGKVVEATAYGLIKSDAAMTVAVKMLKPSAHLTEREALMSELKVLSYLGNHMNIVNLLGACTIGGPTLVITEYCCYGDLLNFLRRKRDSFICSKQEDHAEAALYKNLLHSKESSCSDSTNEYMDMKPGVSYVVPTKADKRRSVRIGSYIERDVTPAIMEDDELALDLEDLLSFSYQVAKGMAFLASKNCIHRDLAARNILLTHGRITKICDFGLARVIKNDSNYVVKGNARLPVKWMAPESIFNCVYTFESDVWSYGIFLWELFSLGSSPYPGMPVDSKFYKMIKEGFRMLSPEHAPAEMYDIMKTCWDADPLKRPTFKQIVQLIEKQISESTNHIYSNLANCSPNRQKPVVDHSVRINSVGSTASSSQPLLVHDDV
# Protocol: as §3
# MEK2 = MEK2 (Homo sapiens, UniProt P36507); test: Kinase panel: MEK2; format: biochemical; conditions: 10 μM EP009
# MEK2, sequence (P36507 whole entry): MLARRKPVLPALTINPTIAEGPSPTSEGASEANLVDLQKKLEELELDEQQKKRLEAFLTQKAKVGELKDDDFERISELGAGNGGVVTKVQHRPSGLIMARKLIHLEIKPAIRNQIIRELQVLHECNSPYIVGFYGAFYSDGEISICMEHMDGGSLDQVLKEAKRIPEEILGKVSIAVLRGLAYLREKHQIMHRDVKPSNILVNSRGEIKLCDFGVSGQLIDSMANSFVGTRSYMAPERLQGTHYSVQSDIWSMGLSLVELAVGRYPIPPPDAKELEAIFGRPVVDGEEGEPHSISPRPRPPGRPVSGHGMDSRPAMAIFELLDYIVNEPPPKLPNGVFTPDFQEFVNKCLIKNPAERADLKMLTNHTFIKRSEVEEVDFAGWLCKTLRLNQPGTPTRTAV
# Protocol: as §3
# PAK1 = PAK1 (Homo sapiens, UniProt Q13153); test: Kinase panel: PAK1; format: biochemical; conditions: 10 μM EP009
# PAK1, sequence (Q13153 whole entry): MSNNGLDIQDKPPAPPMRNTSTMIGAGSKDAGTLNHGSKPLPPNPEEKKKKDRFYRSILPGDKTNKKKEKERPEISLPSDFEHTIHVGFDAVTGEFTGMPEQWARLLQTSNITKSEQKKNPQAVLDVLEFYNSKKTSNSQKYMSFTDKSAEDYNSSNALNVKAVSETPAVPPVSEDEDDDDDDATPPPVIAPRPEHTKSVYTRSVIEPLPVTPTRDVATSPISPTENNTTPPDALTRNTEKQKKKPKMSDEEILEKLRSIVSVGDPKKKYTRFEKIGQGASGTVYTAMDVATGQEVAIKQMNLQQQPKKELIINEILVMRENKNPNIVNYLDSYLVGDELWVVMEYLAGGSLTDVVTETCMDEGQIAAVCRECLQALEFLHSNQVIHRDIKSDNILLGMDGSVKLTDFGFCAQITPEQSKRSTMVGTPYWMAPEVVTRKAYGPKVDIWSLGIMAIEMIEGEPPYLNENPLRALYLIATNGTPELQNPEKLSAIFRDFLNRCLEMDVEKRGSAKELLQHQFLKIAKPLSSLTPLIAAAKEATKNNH
# Protocol: as §3
# PDGFRA = PDGFRA (Homo sapiens, UniProt P16234); test: Kinase panel: PDGFRA; format: biochemical; conditions: 10 μM EP009
# PDGFRA, sequence (P16234 24-1089): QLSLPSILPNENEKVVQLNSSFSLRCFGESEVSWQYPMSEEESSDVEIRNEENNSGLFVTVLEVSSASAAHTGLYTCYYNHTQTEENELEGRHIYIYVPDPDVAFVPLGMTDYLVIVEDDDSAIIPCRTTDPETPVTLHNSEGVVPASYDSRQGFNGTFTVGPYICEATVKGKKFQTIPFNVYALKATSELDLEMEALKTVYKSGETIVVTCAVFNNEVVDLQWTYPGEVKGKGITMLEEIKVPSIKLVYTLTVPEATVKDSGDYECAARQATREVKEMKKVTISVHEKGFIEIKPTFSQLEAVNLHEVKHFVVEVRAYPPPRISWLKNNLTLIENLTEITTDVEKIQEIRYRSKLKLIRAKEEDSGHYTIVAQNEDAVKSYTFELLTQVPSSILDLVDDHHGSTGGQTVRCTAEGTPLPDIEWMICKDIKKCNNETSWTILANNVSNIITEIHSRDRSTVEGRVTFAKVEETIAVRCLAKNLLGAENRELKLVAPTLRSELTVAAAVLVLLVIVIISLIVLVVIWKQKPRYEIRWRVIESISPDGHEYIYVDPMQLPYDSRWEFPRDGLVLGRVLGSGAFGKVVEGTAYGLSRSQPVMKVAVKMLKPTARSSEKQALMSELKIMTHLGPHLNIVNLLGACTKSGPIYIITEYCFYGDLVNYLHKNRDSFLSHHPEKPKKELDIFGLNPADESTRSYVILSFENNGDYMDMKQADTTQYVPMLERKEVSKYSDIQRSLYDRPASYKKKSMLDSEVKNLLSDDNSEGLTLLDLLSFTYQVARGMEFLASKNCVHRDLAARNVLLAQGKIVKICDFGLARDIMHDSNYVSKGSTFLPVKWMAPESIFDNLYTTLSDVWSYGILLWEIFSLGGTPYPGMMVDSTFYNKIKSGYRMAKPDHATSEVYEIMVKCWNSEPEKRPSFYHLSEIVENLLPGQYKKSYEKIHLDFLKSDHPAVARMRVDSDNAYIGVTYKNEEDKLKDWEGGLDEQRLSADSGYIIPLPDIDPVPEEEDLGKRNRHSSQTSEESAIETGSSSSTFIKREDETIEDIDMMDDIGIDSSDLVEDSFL
# Protocol: as §3
# PDPK1 = PDPK1 (Homo sapiens, UniProt O15530); test: Kinase panel: PDPK1; format: biochemical; conditions: 10 μM EP009
# PDPK1, sequence (O15530 whole entry): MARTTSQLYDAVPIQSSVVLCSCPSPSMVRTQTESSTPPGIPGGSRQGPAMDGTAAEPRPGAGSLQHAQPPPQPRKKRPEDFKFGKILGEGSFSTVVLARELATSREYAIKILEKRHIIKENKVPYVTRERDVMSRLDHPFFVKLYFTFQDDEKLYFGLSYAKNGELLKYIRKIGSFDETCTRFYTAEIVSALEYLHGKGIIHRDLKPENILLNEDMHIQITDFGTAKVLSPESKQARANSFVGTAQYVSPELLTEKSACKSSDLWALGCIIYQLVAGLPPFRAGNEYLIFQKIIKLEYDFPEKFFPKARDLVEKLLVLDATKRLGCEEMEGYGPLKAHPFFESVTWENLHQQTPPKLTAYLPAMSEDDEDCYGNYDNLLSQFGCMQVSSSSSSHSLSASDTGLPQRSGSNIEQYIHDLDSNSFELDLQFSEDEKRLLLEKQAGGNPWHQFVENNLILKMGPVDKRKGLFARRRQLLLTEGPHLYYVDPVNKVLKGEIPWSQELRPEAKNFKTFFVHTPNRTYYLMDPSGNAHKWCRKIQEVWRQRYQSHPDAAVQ
# Protocol: as §3
# PKAC-alpha = PKAC-alpha (Homo sapiens, UniProt P17612); test: Kinase panel: PKAC-alpha; format: biochemical; conditions: 10 μM EP009
# Protocol: as §3
# ZAP70 = ZAP70 (Homo sapiens, UniProt P43403); test: Kinase panel: ZAP70; format: biochemical; conditions: 10 μM EP009
# Protocol: as §3
smiles,measurement,setting,value
"C=C1CCCCCCCCCC(CO)C1=O (centres unmarked) [EP009, 2-(Hydroxymethyl)-12-methylenecyclododecanone]",p38 MAP kinase phosphorylation status,p38 MAP kinase,No statistically significant change
same,CREB phosphorylation status,CREB,No statistically significant change
same,Kinase Activity (% of Control),AURKB,99 % of Control
same,Kinase Activity (% of Control),BRAF,72 % of Control
same,Kinase Activity (% of Control),BTK,91 % of Control
same,Kinase Activity (% of Control),CSF1R,94 % of Control
same,Kinase Activity (% of Control),EGFR,100 % of Control
same,Kinase Activity (% of Control),EGFR(L858R),100 % of Control
same,Kinase Activity (% of Control),ERK1,100 % of Control
same,Kinase Activity (% of Control),INSR,100 % of Control
same,Kinase Activity (% of Control),KIT(D816V),100 % of Control
same,Kinase Activity (% of Control),MEK2,84 % of Control
same,Kinase Activity (% of Control),PAK1,100 % of Control
same,Kinase Activity (% of Control),PDGFRA,100 % of Control
same,Kinase Activity (% of Control),PDPK1,100 % of Control
same,Kinase Activity (% of Control),PKAC-alpha,100 % of Control
same,Kinase Activity (% of Control),ZAP70,99 % of Control
